This is an account of results in ChEMBL document CHEMBL1146000, “Synthesis, in vitro evaluation, and intraocular pressure effects of water-soluble prodrugs of endocannabinoid noladin ether” (J Med Chem, 2003).

Data set [1] in a line: Aqueous solubility of the phosphate in TRIS buffers at pH 7.4 at 37 C was determined. The data set is classed as physicochemical. To be noted: TRIS buffer.
Data set [2] can be described thus: Half-life in 4% cornea homogenate at 37 C (n = 3). The data set is classed as ADME, tissue-based.
The nature of data set [3]: Distribution coefficients at 25 C in a 1-octanol-TRIS buffer. Type of data set: physicochemical.
Data set [4] has as its system alkaline phosphatase. Put plainly: Half-life in alkaline phosphatase solution at 37 C (n = 2). The data set is classed as ADME.
A short description of data set [5]: Half-life in 10% liver homogenate at 37 C (n = 3). The data set is classed as ADME, tissue-based.
A short description of data set [6]: Chemical stability in TRIS buffers at pH 7.4 at 37 C was determined. Type of data set: physicochemical. To be noted: TRIS buffer.
Data set [7] can be described thus: Chemical stability in phosphate buffers at pH 7.4 at 37 C was determined. The data set is classed as physicochemical. To be noted: phosphate buffer.

`CCCCC/C=C\C/C=C\C/C=C\C/C=C\CCCCOC(COP(=O)(O)O)COP(=O)(O)O` displayed a solubility in data set [1] of over 5000 µg/mL. For the same compound, the half-life worked out at 17.2 min in data set [2], 1.6 min in data set [4] and 6.4 min in data set [5]. In addition, the logD in data set [3] stood at 0.65.
In data set [1], `CCCCC/C=C\C/C=C\C/C=C\C/C=C\CCCCOC(CO)CO` came in with a solubility of under 0.1 µg/mL.
As for `CCCCC/C=C\C/C=C\C/C=C\C/C=C\CCCCOC(CO)COP(=O)(O)O` (stereo not drawn), the half-life in data set [6] was 216 h; in data set [2], 18.1 min; in data set [7] it was 17.9 days; in data set [4] it was 4.6 min; in data set [5], 7.1 min. Moreover, in data set [1], the solubility is over 5000 µg/mL. Further, the logD in data set [3] came out at 1.98.
